# Biological target: T1, JAK2 (JH1domain-catalytic, Y1007F,Y1008F) kinase (Homo sapiens, UniProt O60674, Y1007F/Y1008F)
# T1 construct: JAK2 (JH1domain-catalytic, Y1007F,Y1008F) kinase was expressed as N-terminal fusion; made in house; host or cells: transiently transfected HEK293 cells
# Test: JAK2 JH1 Domain Binding Assay
# Details: qPCR readout
# T1 sequence (O60674 849-1124 Y1007F/Y1008F limits assumed): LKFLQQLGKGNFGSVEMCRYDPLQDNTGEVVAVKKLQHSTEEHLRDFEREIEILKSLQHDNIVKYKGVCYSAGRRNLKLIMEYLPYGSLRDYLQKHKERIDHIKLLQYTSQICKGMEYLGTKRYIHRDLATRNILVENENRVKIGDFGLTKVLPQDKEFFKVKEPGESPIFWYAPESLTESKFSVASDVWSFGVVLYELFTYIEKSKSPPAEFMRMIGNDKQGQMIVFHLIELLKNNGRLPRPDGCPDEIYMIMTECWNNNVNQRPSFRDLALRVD
row,Compound,Kd [nM]
1,"COc1n[nH]c2ncc(Oc3cnc4nc(Nc5cc(C(F)(F)F)cn(C)c5=O)n(C)c4c3C#N)cc12 [Example I-299, 6-((3-methoxy-1H-pyrazolo[3,4-b]pyridin-5-yl)oxy)-1-methyl-2-((1-methyl-2-oxo-5-(trifluoromethyl)-1,2-dihydropyridin-3-yl)amino)-1H-imidazo[4,5-b]pyridine-7-carbonitrile]",< 10
2,"Cn1cc(C(F)(F)F)cc(Nc2nc3ncc(Oc4cnc5[nH]cc(C#N)c5c4)c(C#N)c3n2C)c1=O [Example I-300, 6-((3-cyano-1H-pyrrolo[2,3-b]pyridin-5-yl)oxy)-1-methyl-2-((1-methyl-2-oxo-5-(trifluoromethyl)-1,2-dihydropyridin-3-yl)amino)-1H-imidazo[4,5-b]pyridine-7-carbonitrile]",50 to 1000
3,"CCN1CCCN(Cc2ccc(Nc3nc4ncc(Oc5cnn6ccncc56)c(Cl)c4n3C)cc2C(F)(F)F)CC1 [Example I-301, 7-chloro-N-(4-((4-ethyl-1,4-diazepan-1-yl)methyl)-3-(trifluoromethyl)phenyl)-1-methyl-6-(pyrazolo[1,5-a]pyrazin-3-yloxy)-1H-imidazo[4,5-b]pyridin-2-amine]",< 10
4,"CNc1ccc2c(Oc3cnc4nc(Nc5cc(C(F)(F)F)cn(C)c5=O)n(C)c4c3C#N)cnn2c1 [Example I-302, 1-methyl-2-((1-methyl-2-oxo-5-(trifluoromethyl)-1,2-dihydropyridin-3-yl)amino)-6-((6-(methylamino)pyrazolo[1,5-a]pyridin-3-yl)oxy)-1H-imidazo[4,5-b]pyridine-7-carbonitrile]",10 to 50
5,"CNc1ccc2c(Oc3cnc4nc(Nc5cc(C(F)(F)F)cn(C)c5=O)n(C)c4c3Cl)cnn2c1 [Example I-303, 3-((7-chloro-1-methyl-6-((6-(methylamino)pyrazolo[1,5-a]pyridin-3-yl)oxy)-1H-imidazo[4,5-b]pyridin-2-yl)amino)-1-methyl-5-(trifluoromethyl)pyridin-2(1H)-one]",< 10
6,"CNc1cn2ncc(Oc3cnc4nc(Nc5cc(C(F)(F)F)cn(C)c5=O)n(C)c4c3Cl)c2cn1 [Example I-304, 3-((7-chloro-1-methyl-6-((6-(methylamino)pyrazolo[1,5-a]pyrazin-3-yl)oxy)-1H-imidazo[4,5-b]pyridin-2-yl)amino)-1-methyl-5-(trifluoromethyl)pyridin-2(1H)-one]",< 10
7,"CNc1cn2ncc(Oc3cnc4nc(Nc5cc(CN6CC[C@H](OC)C6)cc(C(F)(F)F)c5)n(C)c4c3Cl)c2cn1 [Example I-307, (S)-7-chloro-N-(3-((3-methoxypyrrolidin-1-yl)methyl)-5-(trifluoromethyl)phenyl)-1-methyl-6-((6-(methylamino)pyrazolo[1,5-a]pyrazin-3-yl)oxy)-1H-imidazo[4,5-b]pyridin-2-amine]",50 to 1000
8,"CNc1cn2ncc(Oc3cnc4nc(Nc5cc(CN6CC[C@@H](OC)C6)cc(C(F)(F)F)c5)n(C)c4c3Cl)c2cn1 [Example I-308, (R)-7-chloro-N-(3-((3-methoxypyrrolidin-1-yl)methyl)-5-(trifluoromethyl)phenyl)-1-methyl-6-((6-(methylamino)pyrazolo[1,5-a]pyrazin-3-yl)oxy)-1H-imidazo[4,5-b]pyridin-2-amine]",10 to 50
9,"CNc1cn2ncc(Oc3cnc4nc(Nc5nn6c(c5F)COC(C)(C)C6)n(C)c4c3Cl)c2cn1 [Example I-309, N-(7-chloro-1-methyl-6-((6-(methylamino)pyrazolo[1,5-a]pyrazin-3-yl)oxy)-1H-imidazo[4,5-b]pyridin-2-yl)-3-fluoro-6,6-dimethyl-6,7-dihydro-4H-pyrazolo[5,1-c][1,4]oxazin-2-amine]",< 10
10,"CNc1cn2ncc(Oc3cnc4nc(Nc5cc(C(F)(F)F)n(C6CC7(COC7)C6)n5)n(C)c4c3Cl)c2cn1 [Example I-310, N-(1-(2-oxaspiro[3.3]heptan-6-yl)-5-(trifluoromethyl)-1H-pyrazol-3-yl)-7-chloro-1-methyl-6-((6-(methylamino)pyrazolo[1,5-a]pyrazin-3-yl)oxy)-1H-imidazo[4,5-b]pyridin-2-amine]",50 to 1000
11,"CNc1cn2ncc(Oc3cnc4nc(Nc5cc6c(c(C(F)(F)F)c5)C(C)(C)N(C)C6=O)n(C)c4c3Cl)c2cn1 [Example I-311, 6-((7-chloro-1-methyl-6-((6-(methylamino)pyrazolo[1,5-a]pyrazin-3-yl)oxy)-1H-imidazo[4,5-b]pyridin-2-yl)amino)-2,3,3-trimethyl-4-(trifluoromethyl)isoindolin-1-one]",10 to 50
12,"CNc1cn2ncc(Oc3cnc4nc(Nc5cc(C6CC6)cn(C)c5=O)n(C)c4c3Cl)c2cn1 [Example I-312, 3-((7-chloro-1-methyl-6-((6-(methylamino)pyrazolo[1,5-a]pyrazin-3-yl)oxy)-1H-imidazo[4,5-b]pyridin-2-yl)amino)-5-cyclopropyl-1-methylpyridin-2(1H)-one]",< 10
13,"CNc1cn2ncc(Oc3cnc4nc(Nc5cc(C(F)(F)F)cn(C(C)C)c5=O)n(C)c4c3Cl)c2cn1 [Example I-313, 3-((7-chloro-1-methyl-6-((6-(methylamino)pyrazolo[1,5-a]pyrazin-3-yl)oxy)-1H-imidazo[4,5-b]pyridin-2-yl)amino)-1-isopropyl-5-(trifluoromethyl)pyridin-2(1H)-one]",< 10
14,"CNc1cn2ncc(Oc3cnc4nc(Nc5cc(O[C@H]6CCN(C)C6)cc(C(F)(F)F)c5)n(C)c4c3Cl)c2cn1 [Example I-314, (S)-7-chloro-1-methyl-6-((6-(methylamino)pyrazolo[1,5-a]pyrazin-3-yl)oxy)-N-(3-((1-methylpyrrolidin-3-yl)oxy)-5-(trifluoromethyl)phenyl)-1H-imidazo[4,5-b]pyridin-2-amine]",< 10
15,"CNc1cn2ncc(Oc3cnc4nc(Nc5cc(O[C@@H]6CCN(C)C6)cc(C(F)(F)F)c5)n(C)c4c3Cl)c2cn1 [Example I-315, (R)-7-chloro-1-methyl-6-((6-(methylamino)pyrazolo[1,5-a]pyrazin-3-yl)oxy)-N-(3-((1-methylpyrrolidin-3-yl)oxy)-5-(trifluoromethyl)phenyl)-1H-imidazo[4,5-b]pyridin-2-amine]",< 10
16,"CNc1cn2ncc(Oc3cnc4nc(Nc5cc(CN6CCCC6)cc(C(F)(F)F)c5)n(C)c4c3Cl)c2cn1 [Example I-316, 7-chloro-1-methyl-6-((6-(methylamino)pyrazolo[1,5-a]pyrazin-3-yl)oxy)-N-(3-(pyrrolidin-1-ylmethyl)-5-(trifluoromethyl)phenyl)-1H-imidazo[4,5-b]pyridin-2-amine]",10 to 50
17,"CNc1cn2ncc(Oc3cnc4nc(Nc5cc(C6CC6)nn(C)c5=O)n(C)c4c3Cl)c2cn1 [Example I-317, 4-((7-chloro-1-methyl-6-((6-(methylamino)pyrazolo[1,5-a]pyrazin-3-yl)oxy)-1H-imidazo[4,5-b]pyridin-2-yl)amino)-6-cyclopropyl-2-methylpyridazin-3(2H)-one]",10 to 50
18,"CNc1cn2ncc(Oc3cnc4nc(Nc5cc(C(F)(F)F)cn(C)c5=O)n(C)c4c3OC)c2cn1 [Example I-318, 3-((7-methoxy-1-methyl-6-((6-(methylamino)pyrazolo[1,5-a]pyrazin-3-yl)oxy)-1H-imidazo[4,5-b]pyridin-2-yl)amino)-1-methyl-5-(trifluoromethyl)pyridin-2(1H)-one]",10 to 50
19,"COCc1n[nH]c2ncc(Oc3cnc4nc(Nc5cc(C(F)(F)F)cn(C)c5=O)n(C)c4c3C#N)cc12 [Example I-319, 6-((3-(methoxymethyl)-1H-pyrazolo[3,4-b]pyridin-5-yl)oxy)-1-methyl-2-((1-methyl-2-oxo-5-(trifluoromethyl)-1,2-dihydropyridin-3-yl)amino)-1H-imidazo[4,5-b]pyridine-7-carbonitrile]",< 10
20,"CNc1ccc2c(Oc3cnc4nc(Nc5cc(C(F)(F)F)cn(C)c5=O)n(C)c4c3)cnn2c1 [Example I-320, 1-methyl-3-((1-methyl-6-((6-(methylamino)pyrazolo[1,5-a]pyridin-3-yl)oxy)-1H-imidazo[4,5-b]pyridin-2-yl)amino)-5-(trifluoromethyl)pyridin-2(1H)-one]",10 to 50
21,"CNc1cn2ncc(Oc3cnc4nc(Nc5cc(C(F)(F)F)cn(C6CC6)c5=O)n(C)c4c3Cl)c2cn1 [Example I-321, 3-((7-chloro-1-methyl-6-((6-(methylamino)pyrazolo[1,5-a]pyrazin-3-yl)oxy)-1H-imidazo[4,5-b]pyridin-2-yl)amino)-1-cyclopropyl-5-(trifluoromethyl)pyridin-2(1H)-one]",< 10
22,"Cn1c(Nc2cc(C(F)(F)F)n(C3CC4(COC4)C3)n2)nc2ncc(Oc3cnc4[nH]ccc4c3)c(C#N)c21 [Example I-322, 6-((1H-pyrrolo[2,3-b]pyridin-5-yl)oxy)-2-((1-(2-oxaspiro[3.3]heptan-6-yl)-5-(trifluoromethyl)-1H-pyrazol-3-yl)amino)-1-methyl-1H-imidazo[4,5-b]pyridine-7-carbonitrile]",10 to 50
23,"Cn1cc(C(F)(F)F)cc(Nc2nc3ncc(Oc4cnn5ccn(C)c(=O)c45)c(Cl)c3n2C)c1=O [Example I-323, 3-((7-chloro-1-methyl-2-((1-methyl-2-oxo-5-(trifluoromethyl)-1,2-dihydropyridin-3-yl)amino)-1H-imidazo[4,5-b]pyridin-6-yl)oxy)-5-methylpyrazolo[1,5-a]pyrazin-4(5H)-one]",10 to 50
24,"CNc1cn2ncc(Oc3cnc4nc(Nc5cc(C(F)(F)F)cn(-c6cccnc6)c5=O)n(C)c4c3Cl)c2cn1 [Example I-324, 3-((7-chloro-1-methyl-6-((6-(methylamino)pyrazolo[1,5-a]pyrazin-3-yl)oxy)-1H-imidazo[4,5-b]pyridin-2-yl)amino)-5-(trifluoromethyl)-2H-[1,3′-bipyridin]-2-one]",50 to 1000
25,"[2H]C([2H])([2H])n1cc(C(F)(F)F)cc(Nc2nc3ncc(Oc4cnn5cc(NC)ncc45)c(Cl)c3n2C)c1=O [Example I-325, 3-((7-chloro-1-methyl-6-((6-(methylamino)pyrazolo[1,5-a]pyrazin-3-yl)oxy)-1H-imidazo[4,5-b]pyridin-2-yl)amino)-1-(methyl-d3)-5-(trifluoromethyl)pyridin-2(1H)-one]",10 to 50

# — patent US12043632B2, “6-heteroaryloxy benzimidazoles and azabenzimidazoles as JAK2 inhibitors” (Ajax Therapeutics, Inc., priority 2020, dated 2024)
